{
  "source": "paper PMC12169475",
  "about": "(ACS Medicinal Chemistry Letters, 2025)",
  "key": {"E. cloacae NICD 16103": {"test_system": "E. cloacae NICD 16103", "assay_type": "cell-based, Enterobacter cloacae", "conditions": "then MIC 20 h 37°C; for MIC after trypsin treatment: trypsin 0.15 U/mL pH 7.4 (picture: 1 mM), 1 h 37°C, inactivated 60°C 20 min"}, "HaCat cells [1]": {"test_system": "HaCat cells", "conditions": "previously reported, ref Van der Walt et al.; cited from earlier work", "procedure": "The toxicity of the analogues was assessed against HaCat cells, which serve as a relevant model for the intended topical application of these peptides in burn wound care."}, "mammalian erythrocytes": {"test_system": "mammalian erythrocytes", "conditions": "previously reported, ref Van der Walt et al.; cited from earlier work"}, "HepG2 cells": {"test_system": "HepG2 cells", "conditions": "previously reported, ref Van der Walt et al.; cited from earlier work"}, "E. coli ATCC 25922": {"test_system": "E. coli ATCC 25922", "procedure": "(§1) Antibacterial activity against a panel of standard laboratory strains and clinical isolates.\n(§2) Antimicrobial activity was evaluated against a panel of Gram-negative bacteria maintained by H3D, University of Cape Town, consisting of six laboratory reference strains and two clinical isolates. Briefly, bacterial colonies from an LB agar plate were picked and cultured in cation-adjusted Mueller Hinton broth (MHB) at 37°C with 180 rpm shaking, overnight. Cultures were […]\n(§3) back diluted to reach a starting optical density at 600 nm (OD600) of 0.1 and then diluted 100- […]\n(§4) media down polypropylene 96-well plates. Inoculum was added at a 1:1 ratio resulting in a […]\n(§5) (Suppl. Table S2). Plates were incubated at 37°C for 20 h and the OD600 determined. Minimum inhibition concentrations (MICs) were determined from a minimum of three biological repeats. […]\n(§6) the background absorbance.\n(§7) Caution! All bacterial work was conducted using appropriate biosafety level 2 (BSL-2) practices."}, "A. baumannii ATCC 19606": {"test_system": "A. baumannii ATCC 19606", "procedure": "as §1, §2, §3, §4, §5, §6, §7\n(§8) Clinical isolates and reference strains were handled in a biosafety cabinet with proper PPE to prevent exposure and contamination."}, "[2]": {"test_system": "A. baumannii NICD 15283 (C)", "procedure": "as §1, §2, §3, §4, §5, §6, §7, §8"}, "E. cloacae ATCC 700323": {"test_system": "E. cloacae ATCC 700323", "procedure": "as §1, §2, §3, §4, §5, §6, §7, §8"}, "[3]": {"test_system": "E. cloacae NICD 16103 (C)", "procedure": "as §1, §2, §3, §4, §5, §6, §7, §8"}, "E. coli ATCC 700928": {"test_system": "E. coli ATCC 700928", "procedure": "as §1, §2, §3, §4, §5, §6, §7, §8"}, "[4]": {"test_system": "K. pneumoniae ATCC BAA-1705", "procedure": "as §1, §2, §3, §4, §5, §6, §7, §8"}, "P. aeruginosa PAO1": {"test_system": "P. aeruginosa PAO1", "procedure": "as §1, §2, §3, §4, §5, §6, §7, §8"}, "HaCat cells [5]": {"test_system": "HaCat cells", "assay": "In vitro cytotoxicity screening against epidermal HaCat cells (MTT)", "conditions": "24 h exposure in total (21 h + 3 h MTT), OD570, three independent experiments in duplicate (n = 6)"}},
  "note": "Read-outs that look alike come from different tables or passages of the source. Ends that are not written are not given here.",
  "data": [
    {"substance": "GKVWDWIKSTAKKLWN-NH2 [Opis16a]", "values": [
      {"measurement": "MIC in FCS (20%)", "setting": "E. cloacae NICD 16103; peptide preincubated in 20% FCS 1 h at 37°C", "value": 64, "unit": "µg/mL"},
      {"measurement": "MIC after trypsin treatment", "setting": "E. cloacae NICD 16103", "value": "> 32", "unit": "µg/mL"},
      {"measurement": "HaCat toxicity LC50 + SD", "setting": "HaCat cells [1]", "value": "311 ± 12", "unit": "µg/mL"},
      {"measurement": "HC50", "setting": "mammalian erythrocytes", "value": "> 256", "unit": "µg/mL"},
      {"measurement": "LC50", "setting": "HepG2 cells", "value": "118 ± 8", "unit": "µg/mL"}
    ]},
    {"substance": "GKVWKWIKSTARRLWN-NH2 [Opis16aCterKR]", "values": [
      {"measurement": "Modal MIC", "setting": "E. coli ATCC 25922; E. coli ATCC 25922, cation-adjusted MHB, ~5 x 10^5 CFU/mL, 37°C 20 h, OD600, triplicate experiments in duplicate (n = 6)", "value": "8 (8×) μg/mL"},
      {"measurement": "Selectivity index (HaCat LC50 / MIC)", "setting": "E. coli ATCC 25922; E. coli ATCC 25922 over HaCat cells", "value": 22.6},
      {"measurement": "Modal MIC", "setting": "A. baumannii ATCC 19606; A. baumannii ATCC 19606, cation-adjusted MHB, ~5 x 10^5 CFU/mL, 37°C 20 h, OD600, n = 6", "value": 4, "unit": "µg/mL"},
      {"measurement": "Selectivity index (HaCat LC50 / MIC)", "setting": "A. baumannii ATCC 19606; A. baumannii ATCC 19606 over HaCat cells", "value": 45.2},
      {"measurement": "Selectivity index (HaCat LC50 / MIC)", "setting": "[2]; A. baumannii NICD 15283 clinical isolate over HaCat cells", "value": 22.6},
      {"measurement": "Modal MIC", "setting": "[2]; A. baumannii NICD 15283 clinical isolate, cation-adjusted MHB, ~5 x 10^5 CFU/mL, 37°C 20 h, OD600, n = 6", "value": 8, "unit": "µg/mL"},
      {"measurement": "Modal MIC", "setting": "E. cloacae ATCC 700323; E. cloacae ATCC 700323, cation-adjusted MHB, ~5 x 10^5 CFU/mL, 37°C 20 h, OD600, n = 6", "value": "8 (8×) μg/mL"},
      {"measurement": "Selectivity index (HaCat LC50 / MIC)", "setting": "E. cloacae ATCC 700323; E. cloacae ATCC 700323 over HaCat cells", "value": 22.6},
      {"measurement": "Selectivity index (HaCat LC50 / MIC)", "setting": "[3]; E. cloacae NICD 16103 clinical isolate over HaCat cells", "value": 45.2},
      {"measurement": "Modal MIC", "setting": "[3]; E. cloacae NICD 16103 clinical isolate, cation-adjusted MHB, ~5 x 10^5 CFU/mL, 37°C 20 h, OD600, n = 6", "value": "4 (4×) μg/mL"},
      {"measurement": "Modal MIC", "setting": "E. coli ATCC 700928; E. coli ATCC 700928, cation-adjusted MHB, ~5 x 10^5 CFU/mL, 37°C 20 h, OD600, n = 6", "value": 4, "unit": "µg/mL"},
      {"measurement": "Selectivity index (HaCat LC50 / MIC)", "setting": "E. coli ATCC 700928; E. coli ATCC 700928 over HaCat cells", "value": 45.2},
      {"measurement": "Modal MIC", "setting": "[4]; K. pneumoniae ATCC BAA-1705, cation-adjusted MHB, ~5 x 10^5 CFU/mL, 37°C 20 h, OD600, n = 6", "value": 8, "unit": "µg/mL"},
      {"measurement": "Selectivity index (HaCat LC50 / MIC)", "setting": "[4]; K. pneumoniae ATCC BAA-1705 over HaCat cells", "value": 22.6},
      {"measurement": "Modal MIC", "setting": "P. aeruginosa PAO1; P. aeruginosa PAO1, cation-adjusted MHB, ~5 x 10^5 CFU/mL, 37°C 20 h, OD600, n = 6", "value": 4, "unit": "µg/mL"},
      {"measurement": "Selectivity index (HaCat LC50 / MIC)", "setting": "P. aeruginosa PAO1; P. aeruginosa PAO1 over HaCat cells", "value": 45.2},
      {"measurement": "MIC after trypsin treatment", "setting": "E. cloacae NICD 16103", "value": "> 32", "unit": "µg/mL"},
      {"measurement": "HaCat toxicity LC50 + SD", "setting": "HaCat cells [5]", "value": "181 ± 8", "unit": "µg/mL"}
    ]}
  ]
}
